{"source": "paper PMC6383986", "about": "“Fragment-Based Covalent Ligand Screening Enables Rapid Discovery of Inhibitors for the RBR E3 Ubiquitin Ligase HOIP” (Journal of the American Chemical Society, 2019)", "molecular_target": "T1, HOIP RBR R1032A mutant (Homo sapiens, UniProt Q96EP0, R1032A)", "T1 construct": "697-1072; made in house; host or cells: E. coli BL21-GOLD(DE3)", "T1 sequence (Q96EP0 697-1072 R1032A)": "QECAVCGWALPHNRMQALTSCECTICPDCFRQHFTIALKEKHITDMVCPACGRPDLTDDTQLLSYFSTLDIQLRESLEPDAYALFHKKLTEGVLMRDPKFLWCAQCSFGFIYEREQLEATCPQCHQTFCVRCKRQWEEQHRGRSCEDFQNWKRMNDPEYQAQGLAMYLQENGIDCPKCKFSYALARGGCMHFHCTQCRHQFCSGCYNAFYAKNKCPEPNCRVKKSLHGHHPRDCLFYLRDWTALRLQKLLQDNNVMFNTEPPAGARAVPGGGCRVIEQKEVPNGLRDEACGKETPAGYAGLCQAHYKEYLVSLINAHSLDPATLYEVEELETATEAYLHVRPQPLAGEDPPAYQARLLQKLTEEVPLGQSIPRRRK", "assay": "Protein LC-MS library screen, covalent labeling", "type": "binding", "conditions": "20 μM compound, 2 μM protein, 24 h incubation", "experimental": "3.1 Experimental procedures\nAcquisition of mass spectrometry data was carried out using positive electrospray ionisation (ESI) on an Agilent 6224 TOF LC-MS system equipped with a Diode Array Detector (DAD), a Wellplate sampler (held at 10 °C) and an Agilent PLRP-S reverse phase column (50 mm, 1 mm diameter, 5 µm particle size) held at 70 °C. The following mobile phases were used for the LC: Mobile phase A (MP A) = 0.2% Formic acid in water, v/v; Mobile phase B (MP B) = 0.2% Formic acid in MeCN, v/v. The following LC method was employed: 0-0.5 min (10→30% B in A, v/v), 0.5-5 min (30→55% […]\nmL/min. Injection volume: 10 µL. The run length was 8 min, and equilibration time 1 min after each sample. […] Between 0.5 and 6 min the TOF mass spectrometer recorded 1 spectrum per second with a scan range between 700 and 2200 AMU. […]\nthawed individually and analyzed by protein mass spectrometry as described above. The total ion counts (TICs) detected for unlabelled HOIP and labelled HOIP-(5) conjugate within a peak elution range of 10 seconds were used to calculate the ratio of labelled HOIP RBR over total HOIP RBR content for each sample. The averaged data from 3 independent experiments were analyzed according to a two-step model of reversible ligand binding followed by irreversible covalent […]", "data": [{"smiles": "COC(=O)/C=C/CNC(=O)c1cc2c([nH]c1=O)CCC2", "note": "[Compound 5]", "values": [{"measurement": "labeling of HOIP RBR R1032A", "result": "> 85", "unit": "%"}]}]}
